We go through 2 compounds from paper PMC9413491, “A Novel and Cross-Species Active Mammalian INDY (NaCT) Inhibitor Ameliorates Hepatic Steatosis in Mice with Diet-Induced Obesity” (Metabolites, 2022).

The structures appear in SMILES notation. Like-named read-outs stand apart in the source and are kept apart here.

For one assay, the target named is T1, human NaCT (Homo sapiens, UniProt Q86YT5).
T1 construct: citrate uptake into HepG2 cells, which endogenously expressed NaCT; host or cells: HepG2
Briefly: [14C] citrate uptake in HepG2 cells endogenously expressing human NaCT. It counts as cell-based. Conditions: HepG2, human NaCT, citrate substrate. The source says: (§1) We determined activity on human NaCT by measuring citrate uptake into HepG2 cells, which endogenously expressed NaCT [37] and for mouse Nact, using HEK293 cells recombinantly expressing mouse Nact (HEK-Nact). We cloned the mouse Slc13a5 cDNA encoding Nact as described previously.
(§2) For radiometric [14C] citrate uptake assays, we used Cytostar-T plates (Perkin Elmer#RPNQ0166, Waltham, MA, USA). For each assay, we seeded 20,000 HepG2 cells per well on collagen coated 384-well Cytostar-T plates or 5000 HEK293 cells per well on ploy-D-lysine coated 384-well Cytostar-T plates. On the following day, we changed culture medium to assay buffer: 120 mM NaCl, 5.4 mM KCl, 0.8 mM MgSO4, 5 mM glucose, 1.8 mM CaCl2, 25 mM Hepes, 25 mM MES, pH 6.5 (human) and pH 7.5 (mouse). We preincubated cells with compounds at 37 °C for 20 min, after which we added [14C] citrate (3 µM for HEK cells and 10 µM for HepG2 cells) and incubated cells for 50 min at 37 °C. After cooling down for 15 min at 4 °C, we measured the counts using a Microbeta2 reader system (Perkin Elmer).

Another assay addresses T2, mouse Nact (Mus musculus, UniProt Q67BT3).
T2 construct: expressed in transfected cells; host or cells: HEK293 (DSMZ), stably transfected, G418 selection
T2 sequence (Q67BT3 1-572): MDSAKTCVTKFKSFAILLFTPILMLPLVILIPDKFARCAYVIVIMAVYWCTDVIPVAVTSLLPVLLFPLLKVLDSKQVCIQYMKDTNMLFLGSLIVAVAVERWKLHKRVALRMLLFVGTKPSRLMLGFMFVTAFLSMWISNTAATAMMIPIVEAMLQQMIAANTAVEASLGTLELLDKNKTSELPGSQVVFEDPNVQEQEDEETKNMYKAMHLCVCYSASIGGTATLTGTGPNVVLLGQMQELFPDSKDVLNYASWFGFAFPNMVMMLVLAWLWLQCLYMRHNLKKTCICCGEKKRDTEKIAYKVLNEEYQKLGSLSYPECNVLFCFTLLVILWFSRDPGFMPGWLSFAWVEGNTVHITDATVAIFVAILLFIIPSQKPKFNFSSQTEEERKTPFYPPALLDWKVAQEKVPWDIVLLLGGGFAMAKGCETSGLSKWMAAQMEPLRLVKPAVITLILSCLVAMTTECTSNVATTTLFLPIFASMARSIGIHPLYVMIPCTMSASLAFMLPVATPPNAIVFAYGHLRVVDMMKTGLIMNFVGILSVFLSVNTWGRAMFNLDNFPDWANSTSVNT
The assay can be described thus: [14C] citrate uptake in HEK293 cells recombinantly expressing mouse Nact. Format: cell-based. The following applies: HEK293 mouse Nact.
Text: as §1, §2

For assay [1], the system named is fatty acid synthesis in HepG2 cells. The assay can be described thus: Fatty acid synthesis assay ([14C] citrate incorporation) in HepG2 cells. It counts as cell-based, human. How it is done: We performed the fatty acid synthesis assay in HepG2 cells. We seeded cells into black clear-bottom 96-well plates (Corning 3340 cell plate) 75,000/well and incubated at 37 °C. After 16–24 h, we washed the plates once with 100 µL PBS (+CaCl2 +MgCl2) and added 50 µL assay medium ([…] containing 11 mM glucose, 10 mM HEPES, and 1 nM insulin) per well. Then, we applied test substances in assay medium (10 µL, 5% DMSO) and incubated for 20 min at 37 °C. Thereafter, we added 10 µL assay medium containing [14C] citrate (final concentration 50 µM) and PrestoBlue reagent (1× final concentration; Thermo Fisher Scientific, Waltham, MA, USA) and incubated for 180 min (37 °C, 5% CO2). We measured cell viability (ViewLux instrument, Perkin Elmer). We removed medium by vacuum aspiration and washed cells once with 100 µL PBS (+CaCl2 +MgCl2). We lysed cells with 50 µL lysis buffer (0.1 N NaOH, 0.1 % Triton X-100) and sealed plates with Tape Pads and vortexed. For the saponification reaction, we incubated plates for 16–24 h at 70 °C in a humidified environment. Then, we removed seals and added 200 µL 0.1 N HCl to neutralise the pH. We transferred 150 µL from each into corresponding wells of a 96-well Flash plate (Perkin Elmer) and sealed with TopSeal A (Perkin Elmer). We incubated plates for 4 h at 70 °C and for at least 3 h at room temperature in the dark. We measured [14C] radioactivity (microbeta2, Perkin Elmer). For control samples, we applied 50 mM unlabelled citrate or C75 (Sigma-Aldrich, St. Louis, MO, USA, C5490).

T1 sequence (Q86YT5 whole entry): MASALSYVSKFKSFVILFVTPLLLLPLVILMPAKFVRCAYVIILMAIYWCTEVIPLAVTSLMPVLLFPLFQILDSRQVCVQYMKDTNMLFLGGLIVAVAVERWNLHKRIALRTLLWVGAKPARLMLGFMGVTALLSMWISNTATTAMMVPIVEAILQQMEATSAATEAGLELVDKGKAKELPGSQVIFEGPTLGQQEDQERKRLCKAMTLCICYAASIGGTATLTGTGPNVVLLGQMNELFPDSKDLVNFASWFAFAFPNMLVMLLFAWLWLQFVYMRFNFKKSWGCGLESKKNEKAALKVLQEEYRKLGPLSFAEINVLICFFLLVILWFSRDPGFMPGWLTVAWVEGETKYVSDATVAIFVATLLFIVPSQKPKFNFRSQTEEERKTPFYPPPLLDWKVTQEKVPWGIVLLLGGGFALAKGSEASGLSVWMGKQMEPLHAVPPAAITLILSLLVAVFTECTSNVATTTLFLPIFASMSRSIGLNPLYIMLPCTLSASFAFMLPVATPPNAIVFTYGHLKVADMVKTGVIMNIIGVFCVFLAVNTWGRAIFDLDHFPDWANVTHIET

With `O=C(NCc1ccc(F)cc1)C1CCN(S(=O)(=O)c2cc(Cl)cc(Cl)c2)CC1` [BI01383298, reference compound], the IC50 is 78 nM against human NaCT; greater than 50000 nM on mouse Nact (read-out: IC50 HEK293 citrate uptake (mouse)); 30 nM in assay [1] (HepG2, read-out: IC50 HepG2 fatty acid synthesis). Also, the “Effect on citrate uptake for mouse Nact” value at mouse Nact is recorded as “no effects”.

Turning to `CC(C)(C)c1ccc(CC[C@@](O)(CC(=O)O)C(=O)O)cc1` [PF-06649298, reference compound], the IC50 in assay [1] (HepG2, [14C] citrate incorporation, read-out: IC50 fatty acid synthesis, HepG2) stood at 39000 nM.
